According to article PMC10861593, “Kisspeptin-10 binding to Gpr54 in osteoclasts prevents bone loss by activating Dusp18-mediated dephosphorylation of Src” (Nature Communications, 2024):

How the values were obtained:
Src = experiment: GST pull-down with WCL of 293T cells transfected with HA-Src; assay type: binding
From the text: Fig. 2 GPR54 recruited Src via the PR motif in GPR54 C-Terminus. a Sequence analysis of the PR motif in multiple species of GPR54 CT. b SH3 domain protein-binding array using the TranSignal™ SH3 Domain Array kit. The principal Src binding region is circled in red evident (1 Src; 2 the dilution of Src in half). c SPR binding-affinity measurement of Src and GPR54 CT. […] GPR54 CT bound with the SH3 domain of Src mainly via the key residues including R336, P339 and P342. e–h IB analysis of total samples and GST pull-downs using GST proteins including GST, GST-GPR54 CT, GST-GPR54 CT m1 (R336A&P339A), GST-GPR54 CT m2 (delta 339–344) incubated separately with WCL of 293 T cells transfected with HA-Src (e) and quantification of protein levels (f), IB analysis of WCL and anti-GPR54 IP assays derived from RAW264.7 cells induced by Kp-10 for 20 min (g) and quantification of protein levels (h). i, j IF staining was carried out using pre-osteoclasts differentiated from BMMs with M-CSF (10 ng/ml) and RANKL (50 ng/ml) stimulation for 2 days, then treated with 10 nM Kp-10 for 20 min. Representative images of endogenous Gpr54 and Src were shown by total internal reflection fluorescence (TIRF) microscopy (i), and the Mander’s overlap coefficient (MOC) as a measure of colocalization in cells from multiple images taken randomly (j). Scale bar, 50 μm. Data represent means ± SEM. […] These are best readings. […]

DUSP18 = experiment: GST pull-down with WCL of 293T cells transfected with DUSP18; assay type: binding; settings: WCL of 293T cells transfected with DUSP18-HA
Protocol: Beads were analyzed by phosphatase activity assay (a), mass spectrometry assay (b), IB analysis (c) and quantification of protein levels (d). e, f Protein co-localization was analyzed by IF staining in primary pre-osteoclast with 10 nM Kp-10 treatment for 20 min. […] Scale bar, 50 µm. g, h binding affinity was measured by SPR binding analysis. […] Data represent means ± SEM. P values were determined by one-way ANOVA analysis (a, d, j, l) or two-tailed Student’s t-test (f). Representative results were obtained from at least three independent experiments. Source data are provided as a Source Data file.
(§1) Supplementary Fig. 6 a, b IB and quantification of protein levels analysis. […] Error bars are ± SEM. P-values were determined by two-tailed Student’s t-test (b, e) or by one-way ANOVA analysis (h, j). *P <0.05, **P <0.01, ***P <0.001, ****P <0.0001. Representative results were observed from at least three independent experiments. Source data are provided as a Source Data file.

Src / DUSP18 interaction = experiment: Co-IP/IB: interaction of Src with DUSP18 in transfected 293T cells; assay type: cell-based
Protocol: Anti-Flag IP derived from 293 T cells transfected with HA-Src and either DUSP18-Flag or DUSP18 (C104S)-Flag constructs with or without Kp-10 treatment for 20 min were lysed and subjected to anti-FLAG IP (b). Phosphatase reaction products using His-DUSP18 and His-DUSP18 (C104S) proteins purified from E. coli and SRC proteins purified from Sf9 insect cells (c) and quantification of protein levels (d). Anti-Src IP derived from RAW264.7 cells treated with or without Kp-10 treatment for 20 min were lysed and subjected to anti-Src IP (e) and quantification of protein levels (f). g, h Src and Dusp18 co-localization was analyzed by IF staining in primary pre-osteoclasts treated with 10 nM Kp-10 treatment for 20 min. Representative images of endogenous Dusp18 and Src were shown by TIRF microscopy (g), and MOC was used to quantify the degree of colocalization in cells from multiple images taken randomly (h). Scale bar, 50 µm. i–m IB and quantification of protein levels analysis. Anti-Flag IP derived from 293 T cells transfected with HA-Src, GPR54-myc, and either DUSP18-Flag or DUSP18 (C104S)-Flag constructs after Kp-10 treatment for 20 min (i) and quantification of protein levels (j, k). […] Scale bars, 125 µm (n), and pits depth were quantified by confocal microscopy (o). […] P values were determined by one-way ANOVA analysis (d, f, j, k, m, o) or by two-tailed Student’s t-test (h). […]

GPR54 / Src interaction = experiment: Co-IP: interaction of GPR54 with Src in transfected 293T cells; assay type: cell-based, human; settings: inhibitor 1 h (U73122 10 µM, Staurosporine 0.25 µM, LY3214996 10 µM, KN-93 10 µM, Saracatinib 10 µM), then 10 nM Kp-10 20 min
Protocol: (§2) Data represent means ± SEM. P values were determined by one-way ANOVA analysis (b, c, e, g, i, k). Representative results were obtained from at least three independent experiments. Source data are provided as a Source Data file.
(§3) Whole-cell proteins were extracted using 1x RIPA buffer (25 mM Tris, pH7.5, 150 mM NaCl, 0.5% Sodium deoxycholate, 1% Triton-X-100) supplemented with protease inhibitors (Complete Mini, Roche) and phosphatase inhibitors (phosphatase inhibitor cocktail set I and II, Calbiochem). Immunoprecipitation and immunoblotting with indicated antibodies were performed as described in Supplementary Table 1. Image Jsoftware (V1.52) was used for quantification analysis. Uncropped and unprocessed blots are presented in the Supplementary Information file.
Error bars are ± SEM. […] Source data are provided as a Source Data file.

[1] = tested on: DUSP18 / GPR54 interaction; experiment: Co-IP: interaction of DUSP18 with GPR54 in transfected 293T cells; assay type: cell-based, human; settings: 293T; inhibitor 1 h (U73122 10 µM, Staurosporine 0.25 µM, LY3214996 10 µM, KN-93 10 µM, Saracatinib 10 µM), then 10 nM Kp-10 20 min
Protocol: as §2, §3, §1

Dusp18 expression = experiment: qPCR of Dusp18 mRNA in RAW264.7 cells; assay type: cell-based, mouse; settings: U73122 10 µM, Staurosporine 0.25 µM, LY3214996 20 µM, SB203580 10 µM for 1 h, then Kp-10 30 min
From the text: Anti-Flag IP of lysates derived from 293 T cells transfected with GPR54-flag and Src-HA constructs (d) and quantification results (e). Anti-Flag IP of lysates derived from 293 T cells transfected with GPR54-flag and DUSP18-HA constructs (f) and quantification results (g). Anti-Flag IP of lysates derived from 293 T cells transfected with Src-HA, and DUSP18-flag constructs (h) and quantification results (i). j, k IB analysis of lysates derived from WT BMMs and Gq/11 KO BMMs with or without Kp-10 treatment for 1 h (j) and quantification of results (k). l Working model of Kp-10 /Gpr54 mediated Src dephosphorylation. […] However, both active Src and DUSP18 were recruited by GPR54 through the PR motif in GPR54 CT along with the increase of Kp-10 dose (1, 10 nM). […] Data represent means ± SEM. P values were determined by one-way ANOVA analysis (b, c, e, g, i, k). Representative results were obtained from at least three independent experiments. Source data are provided as a Source Data file.
Total RNA was extracted from RAW264.7 cells using TRIzol® (TaKaRa) and then reverse transcribed into cDNA using the PrimeScript RT-PCR Kit (TaKaRa, RR014) according to the manufacturer’s instructions. The cDNA products were used for quantitative PCR analysis by SYBR Mix (TaKaRa, RR064). Sequences of the indicated primers are described in Supplementary Table 2.

Src (Y416) = experiment: in vitro phosphatase activity assay with Src; assay type: biochemical, human; settings: purified proteins; 30 min at 30 °C; Western blot
Protocol: The C terminus of human GPR54 (H329- L398) and mouse Gpr54 (R331- L396) cDNAs were subcloned into a pGEX-4T2 vector. For purification of full-length WT human DUSP18 and DUSP18 (C104S) proteins, DUSP18 was cloned into pMCSG7 vector. For purification of Src (G85-L536) protein, cDNAs of human Src were subcloned into pFastBac HT B vector with an N-terminal 6xHis tag and expressed in Sf9 cells (Expression Systems) using the Bac-to-Bac Baculovirus Expression System (Invitrogen) for 48 h. For purification of the Src (G85-V247)-GPR54 (333–356 with C338S, C340S mutation) recombinant fusion protein, the C-terminus of GPR54 (333–356 with C338S and C340S mutation) was linked to the C terminus of Src SH3-SH2 domain (G85-V247), which was subcloned into the pMCSG7 vector.
For the total phosphatase activity assay, the Co-IP experiment was carried out after Kp-10 treatment of RAW264.7 cells for 20 min, followed by lysis and incubation with the Gpr54 antibody. The assay was performed according to the phosphatase assay kit (Sigma-Aldrich,17-313). For the DUSP18 phosphatase activity assay, His-DUSP18 and His-DUSP18 (C104S) were purified from E Coli, and His-Src was purified from Sf9 insect cells. His-DUSP18 and His-DUSP18 (C104S) were incubated with His-Src in 1x phosphatase buffer (20 mM HEPES, 20 mM MgCl2, 0.03% β-mercaptoethanol)[51] for 30 min at 30 °C with gentle shaking. […]

What does the source list for “R336A&P339A mutant of human GPR54 CT: GST-GPR54 CT m1 (R336A&P339A)”?
binding of Src (GST pull-down) (Src): dramatically dampened the interaction of Src with GPR54 CT; binding of DUSP18 (GST pull-down) (DUSP18): dampened its interaction with DUSP18

CN1CCN(CCOc2cc(OC3CCOCC3)c3c(Nc4c(Cl)ccc5c4OCO5)ncnc3c2)CC1 [Saracatinib] was tested. Which “effect on Kp-10 induced interaction of Src with DUSP18” value (Src / DUSP18 interaction; 293T, inhibitor 1 h (U73122 10 µM, Staurosporine 0.25 µM, LY3214996 10 µM, KN-93 10 µM, Saracatinib 10 µM), then 10 nM Kp-10 20 min) did it give?
The value was “obvioulsly dampened”.

And the “effect on Kp-10 induced interaction of GPR54 with Src” value (from here on “effect … with Src”) (GPR54 / Src interaction)?
The value was “obvioulsly dampened”.

What about the “effect on Kp-10 induced interaction of GPR54 with DUSP18” value [1] of the same molecule?
The value was “obvioulsly dampened”.

For Cn1nccc1Nc1nccc(-c2cc3c(s2)C(C)(C)N(CCN2CCOCC2)C3=O)n1 [LY3214996], which “effect … with Src” value (GPR54 / Src interaction) is on record?
The value was “not by the inhibitors”.

What about the “expression of Dusp18 (mRNA)” value (Dusp18 expression) of the same molecule?
The value was “inhibited”.

With CN[C@@H]1C[C@H]2O[C@@](C)([C@@H]1OC)n1c3ccccc3c3c4c(c5c6ccccc6n2c5c31)C(=O)NC4 [Staurosporine] as the molecule, how does the “effect … with Src” value (GPR54 / Src interaction) read?
Its value is “not by the inhibitors”.

And the “expression of Dusp18 (mRNA)” value (Dusp18 expression)?
Its value is “inhibited”.

B1: △339–344 (deletion sign: △) mutant of GPR54 CT: GST-GPR54 CT m2 (delta 339–344) (protein)
chain: HFRQAFRRVCPRRPRRPGPSDPAAPHAELLRLGSHPAPARAQKPGSSGLAARGLCVLGEDNAPL
modifications: left off: GST, N-terminal, kept
How did the “binding of Src (GST pull-down)” value (Src) turn out when B1 was run?
The value was “completely abolished the binding of Src with GPR54 CT”.

What about the “binding of DUSP18 (GST pull-down)” value (DUSP18) of the same molecule?
The value was “abolished the binding with DUSP18”.

B2: DUSP18 (C104S): enzymatically dead DUSP18 (C104S) mutant (protein)
chain: MTAPSCAFPVQFRQPSVSGLSQITKSLYISNGVAANNKLMLSSNQITMVINVSVEVVNTLYEDIQYMQVPVADSPNSRLCDFFDPIADHIHSVEMKQGRTLLHSAAGVSRSAALCLAYLMKYHAMSLLDAHTWTKSCRPIIRPNSGFWEQLIHYEFQLFGKNTVHMVSSPVGMIPDIYEKEVRLMIPL
modifications: left off: Flag, C-terminal, kept
notes: enzymatically dead DUSP18 (C104S) mutant
Which results are given for B2?
interaction with Src by Co-IP (Src / DUSP18 interaction; anti-Flag IP, 293T cells transfected with HA-Src): eliminated the interaction with Src; dephosphorylation of Src (Y416) (Src (Y416)): had no activity
